{
  "source": "paper PMC13386468",
  "about": "(ACS Chemical Biology, 2025)",
  "key": {"[1]": {"target": "T1, cAMP-dependent protein kinase catalytic subunit (PfPKAc, PF3D7_0934800) (Plasmodium falciparum, UniProt Q7K6A0)", "T1 construct": "with PfPKAr (PF3D7_1223100)", "T1 sequence (Q7K6A0 1-342)": "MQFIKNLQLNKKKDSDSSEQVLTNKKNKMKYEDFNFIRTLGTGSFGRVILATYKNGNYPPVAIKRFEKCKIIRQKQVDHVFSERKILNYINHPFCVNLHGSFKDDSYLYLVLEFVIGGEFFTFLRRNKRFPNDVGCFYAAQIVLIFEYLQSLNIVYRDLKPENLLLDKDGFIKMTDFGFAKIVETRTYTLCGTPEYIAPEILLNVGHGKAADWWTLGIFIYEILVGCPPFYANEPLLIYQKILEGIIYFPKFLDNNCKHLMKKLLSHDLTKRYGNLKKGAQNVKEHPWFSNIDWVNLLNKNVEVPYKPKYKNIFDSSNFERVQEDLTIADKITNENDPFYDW", "T1 sequence (Q7KQK0 1-441 partner)": "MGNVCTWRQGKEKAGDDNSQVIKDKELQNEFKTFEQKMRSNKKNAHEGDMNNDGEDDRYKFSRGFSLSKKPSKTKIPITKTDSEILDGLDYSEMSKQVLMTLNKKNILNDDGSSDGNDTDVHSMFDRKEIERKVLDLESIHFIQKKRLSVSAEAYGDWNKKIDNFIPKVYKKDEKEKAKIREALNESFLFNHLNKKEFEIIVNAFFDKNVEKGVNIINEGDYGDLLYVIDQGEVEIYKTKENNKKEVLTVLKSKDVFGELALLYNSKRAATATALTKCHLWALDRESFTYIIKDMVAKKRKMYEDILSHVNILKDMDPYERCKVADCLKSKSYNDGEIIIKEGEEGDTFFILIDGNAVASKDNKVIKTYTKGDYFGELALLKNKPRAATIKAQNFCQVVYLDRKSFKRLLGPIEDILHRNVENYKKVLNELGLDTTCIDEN", "experiment": "Kinobead competitive pulldown from asexual blood stage parasite lysate, mass spectrometry", "format": "biochemical"}, "[2]": {"system": "T2, Plasmodium falciparum PfDd2", "T2 construct": "Dd2", "experiment": "microbe, parasite or virus in culture", "set-up": "species or system P. falciparum asexual blood stages; asexual blood stage growth inhibition, pLDH read-out", "conditions": "read-out: Mean IC50 ± SEM (µM), pLDH", "procedure": "(§1) Parasite growth inhibition was calculated relative to untreated controls, and IC50 values were determined by fitting dose-response curves. Each assay plate included appropriate growth, vehicle, and positive control wells."}, "[3]": {"system": "T3, Plasmodium falciparum PfNF54 (WT)", "T3 construct": "NF54", "experiment": "microbe, parasite or virus in culture", "set-up": "species or system P. falciparum asexual blood stages; asexual blood stage growth inhibition, modified [3H]-hypoxanthine incorporation", "conditions": "read-out: PfNF54 control (–Shield-1) IC50 (nM)"}, "[4]": {"target": "Aurora-related kinase 1 (PfArk1, PF3D7_0605300) (Plasmodium falciparum, UniProt C6KSQ1)", "experiment": "KinaseSeeker competition binding assay with recombinant kinase; also Kinobead competition (Kd app […]) and conditional knockdown sensitization ([…])"}, "[5]": {"system": "T4, Plasmodium falciparum PfCam3.II", "T4 construct": "Cam3.II", "experiment": "microbe, parasite or virus in culture", "set-up": "species or system P. falciparum asexual blood stages; asexual blood stage growth inhibition, SYBR Green I read-out", "conditions": "read-out: Mean IC50 ± SEM (µM), SYBR Green I", "procedure": "as §1"}, "[6]": {"system": "T3, Plasmodium falciparum PfNF54 (WT)", "experiment": "microbe, parasite or virus in culture", "set-up": "species or system P. falciparum asexual blood stages; asexual blood stage growth inhibition, SYBR Green I read-out", "conditions": "read-out: Mean IC50 ± SEM (µM), SYBR Green I", "procedure": "as §1"}, "[7]": {"system": "T5, Plasmodium falciparum PfRF7", "T5 construct": "RF7", "experiment": "microbe, parasite or virus in culture", "set-up": "species or system P. falciparum asexual blood stages; asexual blood stage growth inhibition, SYBR Green I read-out", "conditions": "read-out: Mean IC50 ± SEM (µM), SYBR Green I", "procedure": "as §1"}, "[8]": {"system": "T6, Plasmodium berghei Liver-stage PbLuc", "T6 construct": "PbLuc (luciferase reporter)", "experiment": "microbe, parasite or virus in culture", "set-up": "liver-stage Plasmodium berghei luciferase inhibition assay", "from_the_text": "(§2) Moderate activity was also observed against immature and late-stage gametocytes, in the low micromolar range, as well as against liver stages, in the submicromolar range (Table and Supplementary Table S3)."}, "[9]": {"target": "T7, calcium-dependent protein kinase 1 (PfCDPK1, PF3D7_0217500) (Plasmodium falciparum, UniProt P62344)", "T7 construct": "gene CDPK1", "T7 sequence (P62344 2-524)": "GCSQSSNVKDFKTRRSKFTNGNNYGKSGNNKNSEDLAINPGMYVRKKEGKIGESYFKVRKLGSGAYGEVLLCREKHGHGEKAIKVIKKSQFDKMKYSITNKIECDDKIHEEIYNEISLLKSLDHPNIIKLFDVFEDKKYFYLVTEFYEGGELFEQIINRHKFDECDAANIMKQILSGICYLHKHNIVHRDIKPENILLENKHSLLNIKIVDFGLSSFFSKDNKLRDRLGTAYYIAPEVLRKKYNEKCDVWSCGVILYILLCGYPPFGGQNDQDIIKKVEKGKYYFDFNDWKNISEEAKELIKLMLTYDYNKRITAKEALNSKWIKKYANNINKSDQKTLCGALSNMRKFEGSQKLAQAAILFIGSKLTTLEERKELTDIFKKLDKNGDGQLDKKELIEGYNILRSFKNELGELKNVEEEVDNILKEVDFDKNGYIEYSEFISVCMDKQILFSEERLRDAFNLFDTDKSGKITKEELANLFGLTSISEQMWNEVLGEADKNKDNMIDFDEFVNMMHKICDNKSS", "experiment": "Kinobead competitive pulldown from asexual blood stage parasite lysate, mass spectrometry", "format": "biochemical"}, "[10]": {"target": "T8, 3-phosphoinositide-dependent protein kinase 1 (PfPDK1, PF3D7_1121900) (Plasmodium falciparum, UniProt Q8IIE7)", "T8 sequence (Q8IIE7 1-525)": "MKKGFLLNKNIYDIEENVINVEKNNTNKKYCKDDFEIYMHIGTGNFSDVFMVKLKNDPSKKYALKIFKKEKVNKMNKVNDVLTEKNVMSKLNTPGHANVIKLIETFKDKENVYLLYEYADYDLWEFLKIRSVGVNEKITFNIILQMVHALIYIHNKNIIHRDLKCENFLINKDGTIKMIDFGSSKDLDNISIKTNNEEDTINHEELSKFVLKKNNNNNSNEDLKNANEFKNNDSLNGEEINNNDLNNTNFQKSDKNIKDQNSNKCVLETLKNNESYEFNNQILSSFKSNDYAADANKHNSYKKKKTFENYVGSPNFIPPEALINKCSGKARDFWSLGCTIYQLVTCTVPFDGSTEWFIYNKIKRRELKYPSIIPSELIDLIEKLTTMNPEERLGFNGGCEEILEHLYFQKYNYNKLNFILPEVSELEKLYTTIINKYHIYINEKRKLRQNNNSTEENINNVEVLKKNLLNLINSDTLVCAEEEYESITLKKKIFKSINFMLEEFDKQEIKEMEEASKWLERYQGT", "experiment": "Kinobead competitive pulldown from asexual blood stage parasite lysate, mass spectrometry", "format": "biochemical"}, "[11]": {"target": "T9, Serine/threonine protein kinase ; PF3D7_0605300 ; C6KSQ1 (Plasmodium falciparum, UniProt C6KSQ1)", "T9 sequence (C6KSQ1 1-353)": "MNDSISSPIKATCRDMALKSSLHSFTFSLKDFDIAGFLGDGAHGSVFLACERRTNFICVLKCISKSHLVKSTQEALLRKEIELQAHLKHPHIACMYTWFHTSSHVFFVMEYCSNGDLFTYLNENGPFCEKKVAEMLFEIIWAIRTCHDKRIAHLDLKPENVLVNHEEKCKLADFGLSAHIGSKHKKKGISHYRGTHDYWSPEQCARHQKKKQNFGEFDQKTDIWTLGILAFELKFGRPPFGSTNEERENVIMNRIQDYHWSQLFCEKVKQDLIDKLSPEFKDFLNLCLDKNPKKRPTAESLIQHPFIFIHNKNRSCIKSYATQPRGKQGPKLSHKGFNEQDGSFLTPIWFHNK", "experiment": "biochemical", "set-up": "species or system Plasmodium falciparum asexual blood stage lysate; Kinobeads competitive pulldown from asexual blood stage P. falciparum extract, TMT quantitative mass spectrometry, apparent Kd", "conditions": "Kdapp, apparent Kd, Kinobeads competition", "from_the_text": "Eluted kinases are quantified in a dose-dependent manner via mass spectrometry. […] Data and error bars represent the mean and SD from two independent experiments. […] Data are plotted as the mean with error bars representing the SEM where N,n = 3,2."}, "[12]": {"target": "T10, glycogen synthase kinase 3 β (PfGSK3β, PF3D7_0312400) (Plasmodium falciparum, UniProt O77344)", "T10 sequence (O77344 1-440)": "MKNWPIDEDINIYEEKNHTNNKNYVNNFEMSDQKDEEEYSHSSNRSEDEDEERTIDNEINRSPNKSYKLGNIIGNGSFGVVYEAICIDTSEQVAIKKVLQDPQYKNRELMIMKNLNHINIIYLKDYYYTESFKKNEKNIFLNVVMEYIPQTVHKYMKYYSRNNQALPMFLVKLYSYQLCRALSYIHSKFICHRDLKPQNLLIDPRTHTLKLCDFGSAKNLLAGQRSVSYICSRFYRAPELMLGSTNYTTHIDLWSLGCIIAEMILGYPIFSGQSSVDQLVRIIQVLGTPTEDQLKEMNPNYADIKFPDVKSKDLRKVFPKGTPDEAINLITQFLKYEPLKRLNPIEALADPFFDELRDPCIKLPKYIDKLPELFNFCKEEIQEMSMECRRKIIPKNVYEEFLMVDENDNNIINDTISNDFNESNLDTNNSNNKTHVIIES", "experiment": "KinaseSeeker competition binding assay with recombinant kinase; also Kinobead competition (IC50 […])", "conditions": "read-out: IC50 value ± SEM or SD ^c"}, "in vitro": {"experiment": "in vitro", "set-up": "HepG2 liver cell cytotoxicity", "conditions": "human, hepg2 cells; read-out: Liver cytotoxicity HepG2 IC50", "from_the_text": "as §2"}},
  "note": "Where two headings read alike, the source gives them in different places.",
  "data": [
    {"smiles": "O=c1[nH]c2ccc(Cl)cc2c(N[C@@H]2CN3CCC2CC3)c1-c1nc2ccccc2[nH]1", "note": "[CHIR-124]", "values": [
      {"measurement": "Kd", "setting": "[1]", "value": 610, "unit": "nM"},
      {"measurement": "IC50", "setting": "[2]", "value": "0.44 ± 0.05", "unit": "µM"},
      {"measurement": "IC50", "setting": "[3]", "value": "36 ± 7", "unit": "nM"},
      {"measurement": "IC50", "setting": "[4]", "value": "380 ± 70", "unit": "nM"},
      {"measurement": "IC50", "setting": "[5]", "value": "0.016 ± 0.002", "unit": "µM"},
      {"measurement": "IC50", "setting": "[6]", "value": "0.033 ± 0.002", "unit": "µM"},
      {"measurement": "IC50", "setting": "[7]", "value": "0.01 ± 0.001", "unit": "µM"},
      {"measurement": "IC50", "setting": "[8]", "value": 310, "unit": "nM"},
      {"measurement": "Kd", "setting": "[9]", "value": 40, "unit": "nM"},
      {"measurement": "Kd", "setting": "[10]", "value": 100, "unit": "nM"},
      {"measurement": "Kd", "setting": "[11]; Experiment ID=X048537", "value": 180, "unit": "nM"},
      {"measurement": "Kd", "setting": "[11]; Experiment ID=X048538", "value": 156, "unit": "nM"},
      {"measurement": "IC50", "setting": "[12]", "value": "200 ± 20", "unit": "nM"},
      {"measurement": "CC50", "setting": "in vitro", "value": 4300, "unit": "nM"}
    ]}
  ]
}
